{"source": "patent US20230114280A1", "about": "“COMPOSITIONS AND METHODS CONTAINING REDUCED NICOTINAMIDE RIBOSIDE FOR PREVENTION AND TREATMENT OF NEUROLOGICAL DISEASES AND CONDITIONS” (SOCIETE DES PRODUITS NESTLE S.A., priority 2020, published 2023)", "key": {"[1]": {"assay": "Circulating NAM, NRH and NR after IP injection in mice", "format": "in vivo", "experimental": "(§1) The UHPLC consisted of a binary pump, a cooled autosampler, and a column oven (DIONEX Ultimate 3000 UHPLC+ Focused, Thermo Scientific), connected to a triple quadrupole spectrometer (TSQ Vantage, Thermo Scientific) equipped with a heated electrospray ionisation (H-ESI) source. Of each sample, 2 µL were injected into the analytical column (2.1 mm x 150 mm, 5 µm pore size, 200 Å HILICON iHILIC®-Fusion(P)), guarded by a pre-column (2.1 mm x 20 mm, 200 Å HILICON iHlLIC®-Fusion(P) Guard Kit) operating at 35° C. The mobile phase (10 mM ammonium acetate at pH 9, A, and acetonitrile, B) was pumped at 0.25 mL/min flow rate over a linear gradient of decreasing organic solvent (0.5-16 min, 90-25% B), followed by re-equilibration for a total run time of 30 min. The MS operated in positive mode at 3500 V with multiple reaction monitoring (MRM). The software Xcalibur v4.1.31.9 (Thermo Scientific) was used for instrument control, data acquisition and processing."}, "[2]": {"assay": "Stability of NRH or NR spiked in isolated mouse plasma", "format": "in vitro ADME", "experimental": "as §1\n(§2) NR degradation to NAM has been proposed as a limitation for its pharmacological efficacy."}, "[3]": {"test_system": "primary hepatocytes from either control or NRK1 knockout (NRK1 KO) mice", "assay": "NAD+ levels in primary hepatocytes from control or NRK1 knockout mice", "format": "cell-based", "details": "after 1 hour of treatment", "text": "(§3) If NRH led to NAD+ synthesis via the formation of NMNH, this hypothetical path would require the phosphorylation of NRH into NMNH."}, "mice": {"test_system": "mice", "assay": "Tissue NAD+ levels after IP injection of NR or NRH in mice", "format": "in vivo", "details": "IP 500 mg/kg, after 1 h"}, "C2C12 myotubes": {"test_system": "C2C12 myotubes", "assay": "NAD+ levels after NRH treatment in C2C12 myotubes", "format": "cell-based"}, "[4]": {"test_system": "Primary rat cortical neurons", "assay": "Amyloid β oligomer induced loss of neurite network in primary cortical neurons (MAP-2 staining)", "format": "cell-based", "details": "NRH 0.01 mM pre-incubated 24 hr or 6 hr, Aβ1-42 15 µmol/L for 24 h", "experimental": "FIG. 7. […] Primary rat cortical neurons were cultured as described in Callizot et al., 2013. […] The Aβ1-42 preparation was done as described in Callizot et al., 2013. The Aβ1-42 preparation was added to a final concentration of 15 µmol/L (2.25 µmol/L oligomers, AβO) diluted in control medium in presence of compounds and let for 24 h. The cortical neurons were then fixed by a cold solution of ethanol (95%) and acetic acid (5%), permeabilized with saponin and incubated with an anti microtubule-associated-protein 2 (MAP-2), to stain cell bodies and neurites, allowing the study of the length of the neurite network. For each condition, 30 pictures (representative of the all well area) per well were taken using ImageXpress (Molecular Devices) with 20x magnification. Neurite length was then evaluated as % of control values. All values are expressed as mean +/-SEM from 5-6 independent wells. * indicates statistically significant difference vs. the amyloid b1-42 treated groups.\nPrimary rat cortical neurons were cultured as described in Callizot et al., 2013. […] The Aβ1-42 preparation was done as described in Callizot et al., 2013. The Aβ1-42 preparation was added to a final concentration of 15 µmol/L (2.25 µmol/L oligomers, AβO) diluted in control medium in presence of compounds and let for 24 h. […] Neurite length was then evaluated as % of control values."}, "[5]": {"text": "as §2"}, "AML12 hepatocytes": {"test_system": "AML12 hepatocytes", "assay": "Intracellular NAD+ levels in AML12 hepatocytes treated with NRH or NR (dose-response, time course)", "format": "cell-based", "experimental": "FIG. 3. NHR acts rapidly after 5 minutes from treatment."}, "AML12 cells": {"test_system": "AML12 cells", "assay": "Pathway of NRH-induced NAD+ synthesis: intracellular metabolites and pathway inhibitors (NBTI, FK866, 5-IT, ABT-702, gallotannin)", "format": "cell-based", "design": "action on NAD+ under adenosine kinase inhibition by 5-IT: dose or concentration left out as unconfirmed", "experimental": "FIG. 4. NRH leads to NAD+ biosynthesis through an adenosine kinase dependent path. […] Then, 1 hour later, acidic extracts were obtained to measure NAD^+ levels. All values in the figure are expressed as mean +/- SEM of 3 independent experiments. * indicates statistical difference at p< 0.05 vs. the respective vehicle treated group.\nA path in which NRH would be converted to NMNH, then to NADH and this would be finally oxidized to NAD+.\nIn order to understand the exact path by which NRH synthesizes NAD+, we initially evaluated whether NRH, could be transported into the cell by equilibrative nucleoside transporters (ENTs).\nas §3\nConsidering the molecular structure of NRH, we reasoned that an alternative nucleoside kinase could be responsible for the phosphorylation of NRH.\nAs a follow-up step, NMNAT enzymes could catalyze the transition from NMNH to NADH."}, "3T3 fibroblasts": {"test_system": "3T3 fibroblasts", "assay": "NAD+ levels after NRH treatment in 3T3 fibroblasts", "format": "cell-based"}, "INS1-cells": {"test_system": "INS1-cells", "assay": "NAD+ levels after NRH treatment in INS1-cells", "format": "cell-based"}}, "note": "“Also recorded” adds a separate entry of the source. Structures can show the parent of a compound that is named as a salt.", "data": [{"compound": "NC(=O)c1ccc[n+]([C@@H]2O[C@H](CO)[C@@H](O)[C@H]2O)c1", "note": "[NR, 1-b-D-ribofuranosyl-3-pyridinecarboxamide salt, reference compound]", "values": [{"measurement": "NAM levels in circulation", "setting": "[1]; mice, IP 500 mg/kg", "result": "highly increased"}, {"measurement": "generation of NAM in isolated mouse plasma", "setting": "[2]; 2 h of incubation", "result": "increase in NAM"}, {"measurement": "levels of the compound in isolated mouse plasma", "setting": "[2]; 2 h of incubation", "result": "NR levels decayed in plasma"}, {"measurement": "NAD+ levels in NRK1 KO derived primary hepatocytes", "setting": "[3]", "result": "failed to increase NAD+ levels"}, {"measurement": "NAD+ levels in liver, muscle and kidney", "setting": "mice", "result": "increased NAD+ levels in liver, muscle and kidney"}]}, {"compound": "dihydro-1-beta-D-ribofuranosyl-3-pyridinecarboxamide [NRH]", "values": [{"measurement": "NR in circulation", "setting": "[1]; mouse, in vivo", "result": "much higher levels than those detected after NR injection itself"}, {"measurement": "NAM levels in circulation", "setting": "[1]; mouse, in vivo, ip, 500 mg/kg", "result": "only a very mild increase"}, {"measurement": "NAD+ levels", "setting": "C2C12 myotubes", "result": "highly elevated NAD+ levels"}, {"measurement": "neurite network / neurite length after Amyloid β1-42 exposure", "setting": "[4]", "result": "protects against Amyloid β oligomer induced loss of neurite network; also recorded: protects against Amyloid β-oligomer induced toxicity in terms of neurite length"}, {"measurement": "degradation to NAM in FBS supplemented media", "setting": "[5]", "result": "did not degrade to NAM"}, {"measurement": "NR production on incubation in isolated plasma", "setting": "[2]", "result": "did not lead to NR production"}, {"measurement": "ability to increase intracellular NAD+ compared with NR", "setting": "AML12 hepatocytes", "result": "better than NR; also recorded: superior to that of NR"}, {"measurement": "concentration range of maximal effects on NAD+ synthesis", "setting": "AML12 hepatocytes", "result": "around the millimolar range"}, {"measurement": "time to significant increases in NAD+ levels after treatment", "setting": "AML12 hepatocytes", "result": "≤ 5", "unit": "min"}, {"measurement": "increase of intracellular NAD+ levels at maximal effect", "setting": "AML12 hepatocytes; around the millimolar range", "result": "more than 10 fold"}, {"measurement": "concentration at which NAD+ levels are significantly increased", "setting": "AML12 hepatocytes; dose-response", "result": 10, "unit": "µM"}, {"measurement": "action on NAD+ under adenosine kinase inhibition by 5-IT", "setting": "AML12 cells; 5-IT for 1 hour prior to NRH, NAD+ measured 1 hour later", "result": "fully ablated the action of NRH"}, {"measurement": "formation of NR and NMN after NRH treatment with 5-IT", "setting": "AML12 cells; 5-IT treatment", "result": "prevented the formation of NR and NMN"}, {"measurement": "intracellular detection of NRH and NMNH", "setting": "AML12 cells; 5 minutes after treatment", "result": "could be detected intracellularly"}, {"measurement": "generation of NMNH, NADH and NAD+ upon inhibition of AK (metabolomic analyses)", "setting": "AML12 cells; after NRH treatment", "result": "fully blunted"}, {"measurement": "intracellular NR and NMN after treatment", "setting": "AML12 cells; compared with NR treatment", "result": "increase in intracellular NR and NMN, greater than that triggered by NR itself"}, {"measurement": "NAD+ synthesis with NMNAT inhibitor gallotannin", "setting": "AML12 cells; gallotannin", "result": "largely compromised NAD+ synthesis"}, {"measurement": "NRH action with gallotannin at maximal doses", "setting": "AML12 cells; gallotannin, NRH 0.5 mM", "result": "part of the NRH action remained"}, {"measurement": "NRH action with gallotannin at submaximal doses", "setting": "AML12 cells; gallotannin, submaximal NRH doses", "result": "totally blocked"}, {"measurement": "capacity as extracellular NAD+ precursor under ENT blockade", "setting": "AML12 cells; in the presence of S-(4-nitrobenzyl)-6-thioinosine (NBTI)", "result": "largely lost its capacity as an extracellular NAD+ precursor"}, {"measurement": "action on NAD+ under adenosine kinase inhibition by ABT-702", "setting": "AML12 cells; second, structurally different AK inhibitor ABT-702", "result": "role of AK in NRH-mediated NAD+ synthesis was confirmed"}, {"measurement": "dependence of action on NAMPT", "setting": "AML12 cells; with FK866, a NAMPT inhibitor", "result": "NAMPT-independent"}, {"measurement": "NAD+ levels", "setting": "3T3 fibroblasts", "result": "highly elevated NAD+ levels"}, {"measurement": "NAD+ levels", "setting": "INS1-cells", "result": "highly elevated NAD+ levels"}, {"measurement": "NAD+ levels in liver, muscle and kidney", "setting": "mice", "result": "increased NAD+ levels in liver, muscle and kidney"}]}]}
